Experimental data: publication PMC6862253, “Synthesis and Evaluation of Anticancer Activity of New 4-Acyloxy Derivatives of Robustic Acid” (International Journal of Molecular Sciences, 2019)
Each block holds one molecule with its values, some of them ahead of it.

Tests used:
[1] = system: human leukemic cells HL-60; assay: MTS anti-proliferative assay, HL-60; format: cell-based; conditions: mean ± SD
Method: (§1) The MTS (3-(4,5-dimethylthiazole-2-yl)-5-(3-carboxymethoxyphenyl)-2-(4-sulfophenyl)-2H- tetrazolium) (Promega, Madison, WI, USA) assay was used to determine the IC50 value for all compounds, according to [26]. We used a panel of five human carcinoma cell lines and two normal cells including HL-60, A549, SMMC-7721, HepG2, Hela, LO2 and BEAS-2B. Cells were seeded in 96-well plates at a density of 3 × 10^3–1.5 × 10^4 cells/well in 100 μL medium (DMEM or RMPI1640) and incubated for 12–24 h at 37 °C. Subsequently, cells were exposed to drugs in an additional 100 μL medium and were further incubated at 37 °C for 48 h. In brief, 100 μL MTS reagent supplement with 100 μL medium was added directly to the wells and cells were incubated at 37 °C for a minimum of 2 h. Colorimetric measurements were recorded at 492 nm. Background absorbance was corrected using triplicate sets of wells[…] containing medium only (no cells), and MTS reagent was added per experimental well. Each experiment was performed at least three times, and values in results are represented as mean ± SD.

[2] = system: human non-small cell lung carcinoma cells A-549; assay: MTS anti-proliferative assay, A-549; format: cell-based; conditions: mean ± SD
Method: as §1

[3] = system: human hepatic carcinoma cells SMMC-7721; assay: MTS anti-proliferative assay, SMMC-7721; format: cell-based; conditions: mean ± SD
Method: as §1

[4] = system: human hepatocellular carcinoma cells HepG2; assay: MTS anti-proliferative assay, HepG2; format: cell-based; conditions: mean ± SD
Method: as §1

[5] = system: human cervical carcinoma cells Hela; assay: MTS anti-proliferative assay, Hela; format: cell-based; conditions: 48 h, mean ± SD
Method: as §1

[6] = system: human normal liver cells LO2; assay: MTS cytotoxicity assay, normal LO2 cells; format: cell-based; conditions: mean ± SD
Method: as §1

[7] = system: human normal lung epithelial cells BEAS-2B; assay: MTS cytotoxicity assay, normal BEAS-2B cells; format: cell-based; conditions: 48 h, mean ± SD
Method: as §1

[8] = target: T1, DNA topoisomerase I (Topo I) (Bos taurus, UniProt F1MN93); assay: Topo I inhibitory activity, supercoiled DNA unwinding, agarose gel; format: biochemical
T1 construct: purchased Takara Bio Inc
T1 sequence (F1MN93 1-767): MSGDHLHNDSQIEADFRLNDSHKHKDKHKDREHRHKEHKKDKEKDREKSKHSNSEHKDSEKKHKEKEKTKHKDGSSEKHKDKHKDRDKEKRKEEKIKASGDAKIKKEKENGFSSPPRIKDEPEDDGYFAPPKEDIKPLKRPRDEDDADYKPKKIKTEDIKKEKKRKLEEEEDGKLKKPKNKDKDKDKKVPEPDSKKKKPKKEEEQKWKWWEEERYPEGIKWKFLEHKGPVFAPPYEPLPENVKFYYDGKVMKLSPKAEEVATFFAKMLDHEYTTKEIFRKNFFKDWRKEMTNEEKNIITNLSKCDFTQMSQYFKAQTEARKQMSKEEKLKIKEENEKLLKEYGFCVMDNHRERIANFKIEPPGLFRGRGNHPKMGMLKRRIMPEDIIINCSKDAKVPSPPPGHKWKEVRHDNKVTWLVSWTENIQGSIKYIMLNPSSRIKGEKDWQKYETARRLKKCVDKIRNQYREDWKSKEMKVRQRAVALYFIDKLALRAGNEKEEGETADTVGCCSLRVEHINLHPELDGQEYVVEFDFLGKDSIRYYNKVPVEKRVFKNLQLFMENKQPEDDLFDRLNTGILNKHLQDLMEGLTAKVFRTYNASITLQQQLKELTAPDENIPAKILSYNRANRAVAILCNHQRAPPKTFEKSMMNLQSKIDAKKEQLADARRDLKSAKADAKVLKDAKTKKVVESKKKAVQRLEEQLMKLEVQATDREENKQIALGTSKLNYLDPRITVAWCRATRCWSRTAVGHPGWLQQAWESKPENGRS
Source text: DNA Topo I is an important enzyme in all living organisms, and it participates in many cellular metabolic processes, such as replication, transcription, recombination, and repair. DNA Topo I has been established as a molecular target of anticancer drugs. A combined study of synthesis and docking for the anti-cancer activity of novel coumarins concluded that coumarin derivatives are potent cytotoxic agents. […] Currently, discovering novel non-camptothecin inhibitors for DNA Topo I has become an important area of research. Thus, a DNA Topo I inhibitory activity assay was also carried out using the supercoiled DNA unwinding method in this study. […] Therefore, compounds 2d, 2g, and 2i were selected for further quantitative investigation (depicted in Figure 5B). […] This correlates well with the cytotoxicity to HL-60, A-549, and SMMC-7721 cells. Thus, we infer that the anti-proliferative activity of 4-acyloxy derivatives of RA to these three cells may be related to Topo I. Supercoiled […] DNA was used as a substrate to determine the Topo I catalytic activity. Commercial samples of Topo I and pBR322 were obtained from Takara Bio Inc. The buffer solutions were prepared using 500 mM KAc, 200 mM Tris-Ac, 100 mM Mg(Ac)2, and 1 mg/mL BSA. The procedure used for determination of enzyme inhibitory activity was similar to one reported by Xu et al..

melting point: 171.5 to 182.3 °C
SMILES: COC1=c2c(OC(=O)c3cccs3)c(-c3ccc(OC)cc3)c(=O)oc2=CC2OC(C)(C)C=CC12 (centres unmarked) [Compound 2e, 4-O-Thenoyl robustic acid]

melting point: 225.6 to 228.5 °C
SMILES: COC1=c2c(OC(=O)c3ccc(C(F)(F)F)cc3)c(-c3ccc(OC)cc3)c(=O)oc2=CC2OC(C)(C)C=CC12 (centres unmarked) [Compound 2d, 4-O-(p-Trifluoromethylbenzoyl)robustic acid]

melting point: 246.9 to 250.2 °C
SMILES: CCc1ccc(C(=O)Oc2c(-c3ccc(OC)cc3)c(=O)oc3c2=C(OC)C2C=CC(C)(C)OC2C=3)cc1 (centres unmarked) [Compound 2h, 4-O-(p-Ethylbenzoyl)robustic acid]

melting point: 239.5 to 241.9 °C
SMILES: COC1=c2c(OC(=O)c3ccc([N+](=O)[O-])cc3)c(-c3ccc(OC)cc3)c(=O)oc2=CC2OC(C)(C)C=CC12 (centres unmarked) [Compound 2g, 4-O-(p-Nitrobenzoyl)robustic acid]

melting point: 266.4 to 273.4 °C
SMILES: COC1=c2c(OC(=O)c3ccccc3)c(-c3ccc(OC)cc3)c(=O)oc2=CC2OC(C)(C)C=CC12 (centres unmarked) [Compound 2a, 4-O-Benzoyl-robustic acid]

Continued, molecule first:

SMILES: COC1=c2c(OC(=O)c3ccc(Br)cc3F)c(-c3ccc(OC)cc3)c(=O)oc2=CC2OC(C)(C)C=CC12 (centres unmarked) [Compound 2i, 4-O-(4-Bromo-2-fluorobenzoyl) robustic acid]
melting point: 250.8 to 251.9 °C

SMILES: COc1ccc(-c2c(O)c3c(OC)c4c(cc3oc2=O)OC(C)(C)C=C4)cc1 [RA, robustic acid]
IC50 ([1]; Homo sapiens, HL-60, 48 h): > 100 µM
IC50 ([2]; Homo sapiens, A549, 48 h): > 100 µM
IC50 ([3]; Homo sapiens, SMMC-7721, 48 h): > 100 µM
IC50 ([4]; Homo sapiens, HepG2, 48 h): > 100 µM
IC50 ([5]; Homo sapiens, HeLa): > 100 µM
IC50 ([6]; Homo sapiens, L02, 48 h): > 100 µM
IC50 ([7]; Homo sapiens, BEAS-2B): > 100 µM
Topo I inhibitory activity ([8]; concentrations lower than 10 mM): no inhibitory activity was found

SMILES: N.N.[Cl][Pt][Cl] [cisplatin]
IC50 ([1]; 48 h): 14.2 ± 0.56 µM
IC50 ([2]; 48 h): 25.4 ± 1.06 µM
IC50 ([3]; 48 h): 1.32 ± 0.97 µM
IC50 ([4]; 48 h): 10.6 ± 1.4 µM
IC50 [5]: 5.83 ± 0.14 µM
IC50 ([6]; 48 h): < 0.008 µM
IC50 [7]: 57.7 ± 3.1 µM

SMILES: COC1=c2c(OC(C)=O)c(-c3ccc(OC)cc3)c(=O)oc2=CC2OC(C)(C)C=CC12 (centres unmarked) [Compound 2j, 4-O-Acetylrobustic acid]
melting point: 189.9 to 192.1 °C

SMILES: CC[C@@]1(O)C(=O)OCc2c1cc1n(c2=O)Cc2cc3ccccc3nc2-1 [CPT, camptothecin]
IC50 ([1]; Homo sapiens, HL-60, 48 h): 12.2 ± 1.06 µM
IC50 ([2]; Homo sapiens, A549, 48 h): 15.3 ± 1.22 µM
IC50 ([3]; Homo sapiens, SMMC-7721, 48 h): 18.9 ± 4.12 µM
IC50 ([4]; Homo sapiens, HepG2, 48 h): 1.3 ± 0.62 µM
IC50 ([5]; Homo sapiens, HeLa): 0.5 ± 0.08 µM
IC50 ([6]; Homo sapiens, L02, 48 h): 0.03 ± 0.002 µM
IC50 ([7]; Homo sapiens, BEAS-2B): 2.16 ± 0.47 µM

SMILES: COc1ccc(-c2c(OC(=O)c3ccc(F)cc3)c3c(OC)c4c(cc3oc2=O)OC(C)(C)C=C4)cc1 [Compound 2f, 4-O-(p-Fluorobenzoyl)robustic acid]
IC50 ([1]; Homo sapiens, HL-60, 48 h): > 100 µM
IC50 ([2]; Homo sapiens, A549, 48 h): > 100 µM
IC50 ([3]; Homo sapiens, SMMC-7721, 48 h): 66.2 ± 5.7 µM
IC50 ([4]; Homo sapiens, HepG2, 48 h): 87.3 ± 2.14 µM
IC50 ([5]; Homo sapiens, HeLa): 65.1 ± 1.27 µM
IC50 ([6]; Homo sapiens, L02, 48 h): > 100 µM
IC50 ([7]; Homo sapiens, BEAS-2B): > 100 µM
Topo I inhibitory activity ([8]; gel electrophoresis): moderate inhibitory activities
melting point: 236.8 to 239.6 °C
